{
  "source": "patent US20110092456A1",
  "about": "“Methods of increasing cAMP levels and uses thereof” (priority 2009, published 2011)",
  "key": {"PTEN": {"system": "PTEN", "test": "Western blot of myocardial PTEN", "assay_type": "in vivo, rat", "settings": "rats, 3-day oral pretreatment, immunoblot, result in words", "description": "(§1) Adenosine 5' triphosphate [γ32P] […] The supernatant was collected and the total protein concentration was determined using Lowry Protein Assay. The protein samples were subjected to SDS-PAGE with 4-20% gradient polyacrylamide gel and transferred to pure nitrocellulose membrane (0.45 μm) (Bio-Rad). After blocking with 5% skim milk in Tris-buffered saline, the membrane was incubated overnight at 4° C. with primary antibodies against eNOS, Akt, […]-eNOS, […]-eNOS, […]-Akt, and PTEN, and secondarily with HRP-conjugated anti-mouse or anti-rabbit antibodies. The immunoblots were developed using ECL western Blotting Detection Reagent (Amersham). The protein signals were pictured by an image-scanner and analyzed using Image J software (National Institutes of health, USA). The strength of each signal was normalized to the corresponding β-actin stain signal. Data are expressed as a ratio between the protein and the corresponding β-actin signal density."}, "[1]": {"system": "rat model of myocardial ischemia-reperfusion injury", "test": "Rat myocardial ischemia-reperfusion infarct size protocol", "assay_type": "in vivo", "settings": "rats; for infarct size (as a percentage of the AR): FIG. 1, 3-day oral pretreatment; for infarct size: 3-day oral pretreatment (atorvastatin 2 mg/kg/d, cilostazol 20 mg/kg/d)", "description": "Adenosine 5′ triphosphate [γ32P]\nHearts were excised and the left ventricle was sliced transversely into 6 sections. Slices were weighed and incubated for 15 minutes at 37° C. in 1% buffered (pH=7.4) 2,3,5-triphenyl-tetrazolium-chloride (TTC), fixed in a 10% formaldehyde and photographed in order to identify the AR (uncolored by the blue dye), the infarct size (unstained by TTC), and the non-ischemic zones (colored by blue dye). The area of AR and infarct size in each slice were determined by planimetry, converted into percentages of the whole for each slice, and multiplied by the weight of the slice and the results summed to obtain the weight of the myocardial AR and infarct size."}, "calcium dependent NOS": {"system": "calcium dependent NOS", "settings": "atorvastatin 3-day pretreatment, 1 mg/kg/d; cited from earlier work"}, "[2]": {"settings": "rat; 16 hours after the third dose, 10 mg/kg/d; cited from earlier work"}, "myocardial adenosine": {"system": "myocardial adenosine", "test": "Myocardial adenosine levels (HPLC)", "assay_type": "in vivo, rat", "settings": "rats; 3-day oral pretreatment; result in words", "description": "Adenosine 5′ triphosphate [γ32P] […] Adenosine was analyzed by high performance liquid chromatography (HPLC) according to the procedure of Wojcik and Neff {Wojcik, 1982 #325}. […] The protein concentration was determined by Lowry assay. Ten volumes of 0.25 M Ba(OH)2 was added and the samples were centrifuged at 30,000×g for 10 minutes. The supernatants were then transferred to a conical tube and 5 μl of chloroacetaldehyde added to 20 μl of supernatant. The tubes were capped, mixed and submerged in a boiling water bath for 10 min. The samples were analyzed by HPLC using a Waters C18 reversed phase 150 mm×4.6 mm column. […] The excitation monochromator was set to a wavelength of 270 nm and the cutoff wavelength of the emission filter was 389 nm."}, "eNOS [3]": {"system": "eNOS", "test": "Western blot of myocardial eNOS", "assay_type": "in vivo, rat", "settings": "rats, 3-day oral pretreatment, immunoblot, result in words", "description": "as §1"}, "eNOS [4]": {"system": "eNOS", "settings": "atorvastatin 3-day pretreatment, 1 mg/kg/d; cited from earlier work"}, "Akt [5]": {"system": "Akt", "test": "Western blot of myocardial Akt", "assay_type": "in vivo, rat", "settings": "rats, 3-day oral pretreatment, immunoblot, result in words", "description": "as §1"}, "myocardial infarct size [6]": {"system": "myocardial infarct size", "settings": "3-day pretreatment, cited from earlier work"}, "[7]": {"settings": "41 patients; cilostazol 200 mg/d versus aspirin 250 mg/d; cited from earlier work"}, "myocardial infarct size [8]": {"system": "myocardial infarct size", "settings": "rabbit; intravenous 1 mg/kg/min for 5 min before myocardial ischemia; cited from earlier work"}, "Akt [9]": {"system": "Akt", "settings": "rat; oral 30 mg/kg after 2 hours of middle cerebral artery occlusion; cited from earlier work"}, "[10]": {"settings": "cited from earlier work"}, "[11]": {"system": "cAMP-dependent protein kinase (PKA)", "test": "Myocardial protein kinase A (PKA) activity, rat", "assay_type": "in vivo", "settings": "rats; 3-day oral pretreatment; myocardial samples; result in words"}, "[12]": {"system": "permanent middle cerebral artery occlusion", "settings": "mouse; 30 mg/kg intraperitoneally three times (12 h before, 1 h before, just after ischemia); cited from earlier work"}, "[13]": {"system": "middle cerebral artery occlusion", "settings": "rat, cited from earlier work"}, "[14]": {"settings": "30 min ischemia, 4 h reperfusion, mean±SEM"}},
  "note": "“Also recorded” adds a separate entry of the source. Like-named read-outs stand apart in the source and are kept apart here.",
  "data": [
    {"smiles": "CC(C)c1c(C(=O)Nc2ccccc2)c(-c2ccccc2)c(-c2ccc(F)cc2)n1CC[C@@H](O)C[C@@H](O)CC(=O)O", "note": "[atorvastatin]", "values": [
      {"measurement": "myocardial PTEN levels", "setting": "PTEN", "value": "no effect"},
      {"measurement": "infarct size (as a percentage of the AR)", "setting": "[1]; result in words", "value": "did not affect infarct size"},
      {"measurement": "infarct size", "setting": "[1]; [14]", "value": "128 ± 8", "unit": "mg"},
      {"measurement": "infarct size", "setting": "[1]; result in words", "value": "did not affect infarct size"},
      {"measurement": "calcium dependent NOS activity", "setting": "calcium dependent NOS", "value": "did not affect"},
      {"measurement": "blood levels of atorvastatin", "setting": "[2]", "value": "comparable to those seen in humans treated with atorvastatin 80 mg/d"},
      {"measurement": "myocardial adenosine levels", "setting": "myocardial adenosine", "value": "small increase in myocardial adenosine levels"},
      {"measurement": "myocardial levels of Ser-1177 P-eNOS", "setting": "eNOS [3]", "value": "but not on Ser-1177 P-eNOS and Ser-633 P-eNOS levels; also recorded: did not increase"},
      {"measurement": "myocardial total eNOS levels", "setting": "eNOS [3]", "value": "did not affect"},
      {"measurement": "myocardial levels of P-eNOS", "setting": "eNOS [4]", "value": "did not affect"},
      {"measurement": "myocardial levels of Ser-473 P-Akt", "setting": "Akt [5]", "value": "small, statistically significant effect"},
      {"measurement": "myocardial total Akt levels", "setting": "Akt [5]", "value": "did not affect"},
      {"measurement": "infarct size", "setting": "myocardial infarct size [6]; 1 mg/kg/d", "value": "did not limit infarct size"},
      {"measurement": "infarct size", "setting": "myocardial infarct size [6]; oral, 2 mg/kg/d", "value": "does not affect infarct size"},
      {"measurement": "infarct size", "setting": "myocardial infarct size [6]; oral, 10 and 75 mg/kg/d", "value": "reduces infarct size"}
    ]},
    {"smiles": "O=C1CCc2cc(OCCCCc3nnnn3C3CCCCC3)ccc2N1", "note": "[cilostazol]", "values": [
      {"measurement": "myocardial PTEN levels", "setting": "PTEN", "value": "significantly reduce PTEN levels"},
      {"measurement": "myocardial PTEN levels", "setting": "PTEN; listed as CIL", "value": "significantly decreased"},
      {"measurement": "6-month angiographic outcomes", "setting": "[7]", "value": "better 6-month angiographic outcomes than aspirin"},
      {"measurement": "minimal lumen diameter at follow-up", "setting": "[7]", "value": "larger"},
      {"measurement": "percent diameter stenosis", "setting": "[7]", "value": "smaller"},
      {"measurement": "plaque area (intravascular ultrasound)", "setting": "[7]", "value": "smaller"},
      {"measurement": "effect of preconditioning by 2 min of ischemia", "setting": "myocardial infarct size [8]", "value": "potentiates the effect of preconditioning"},
      {"measurement": "myocardial infarct size", "setting": "myocardial infarct size [8]", "value": "does not affect myocardial infarct size"},
      {"measurement": "infarct size (as a percentage of the AR)", "setting": "[1]; result in words", "value": "significantly smaller than in the control group"},
      {"measurement": "infarct size", "setting": "[1]; [14]", "value": "56 ± 4", "unit": "mg"},
      {"measurement": "infarct size", "setting": "[1]; result in words", "value": "reduced infarct size; also recorded: significant reduction in infarct size"},
      {"measurement": "Akt phosphorylation", "setting": "Akt [9]", "value": "augmented Akt phosphorylation"},
      {"measurement": "6-month restenosis rate", "setting": "[10]; 50 patients, primary stenting for ST elevation acute myocardial infarction, cilostazol 100 mg BID versus aspirin alone", "value": 0, "unit": "%"},
      {"measurement": "in-stent stenosis", "setting": "[10]; 70 patients, Palmaz-Schatz stenting, cilostazol 200 mg/d, aspirin 81 mg/d", "value": 8.6, "unit": "%"},
      {"measurement": "6-month restenosis after successful coronary stenting", "setting": "[10]; CREST, cilostazol 100 mg bid, all patients on clopidogrel 30 days and aspirin 6 months", "value": 22.0, "unit": "%"},
      {"measurement": "9-month target lesion revascularization rate per patient", "setting": "[10]; RACTS trial, cilostazol 100 mg bid 6 months, ticlopidine 250 mg bid 1 month", "value": 22.9, "unit": "%"},
      {"measurement": "myocardial adenosine levels", "setting": "myocardial adenosine", "value": "small increase in myocardial adenosine levels"},
      {"measurement": "myocardial levels of Ser-633 P-eNOS", "setting": "eNOS [3]", "value": "augmented myocardial levels"},
      {"measurement": "myocardial levels of Ser-1177 P-eNOS", "setting": "eNOS [3]", "value": "augmented myocardial levels"},
      {"measurement": "myocardial total eNOS levels", "setting": "eNOS [3]", "value": "did not affect"},
      {"measurement": "myocardial levels of Ser-633 P-eNOS", "setting": "eNOS [3]; listed as CIL", "value": "significantly increased"},
      {"measurement": "myocardial levels of Ser-1177 P-eNOS", "setting": "eNOS [3]; listed as CIL", "value": "significantly increased"},
      {"measurement": "cAMP-dependent protein kinase (PKA) activity", "setting": "[11]", "value": "significantly increased"},
      {"measurement": "myocardial levels of Ser-473 P-Akt", "setting": "Akt [5]", "value": "augmented myocardial levels"},
      {"measurement": "myocardial total Akt levels", "setting": "Akt [5]", "value": "did not affect"},
      {"measurement": "myocardial levels of Ser-473 P-Akt", "setting": "Akt [5]; listed as CIL", "value": "significantly increased"},
      {"measurement": "brain infarct size measured at 24 h", "setting": "[12]", "value": "reduced brain infarct size"},
      {"measurement": "brain infarct size", "setting": "[13]; 2 h occlusion, 24 h reperfusion, oral cilostazol 30 mg/kg, aspirin 300 mg/kg, clopidogrel 30 mg/kg", "value": "reduced brain infarct size"},
      {"measurement": "brain infarct size", "setting": "[13]; oral 30 mg/kg at 5 min and 4 h after completion of 2 hours of middle cerebral artery occlusion", "value": "reduces brain infarct size"}
    ]}
  ]
}
